Data taken from paper PMC6402482 (ACS chemical biology, 2018).

Assays:
[1] = system: cancer cell lines; settings: most cancer cell lines; cited from earlier work
[2] = Glutamate-induced ferroptotic cell death in HT22 cells, LDH release at 24 h; assay type: cell-based, mouse; settings: 5 mM glutamate, LDH at 24 h, n = 5/group
[3] = molecular target: active PARP1 enzyme (Homo sapiens, UniProt P09874); assay: PARP1 enzyme inhibition ex vivo; settings: 0–100 nM on active PARP1 enzyme (10 U), triplicate
Sequence of active PARP1 enzyme (P09874 whole entry): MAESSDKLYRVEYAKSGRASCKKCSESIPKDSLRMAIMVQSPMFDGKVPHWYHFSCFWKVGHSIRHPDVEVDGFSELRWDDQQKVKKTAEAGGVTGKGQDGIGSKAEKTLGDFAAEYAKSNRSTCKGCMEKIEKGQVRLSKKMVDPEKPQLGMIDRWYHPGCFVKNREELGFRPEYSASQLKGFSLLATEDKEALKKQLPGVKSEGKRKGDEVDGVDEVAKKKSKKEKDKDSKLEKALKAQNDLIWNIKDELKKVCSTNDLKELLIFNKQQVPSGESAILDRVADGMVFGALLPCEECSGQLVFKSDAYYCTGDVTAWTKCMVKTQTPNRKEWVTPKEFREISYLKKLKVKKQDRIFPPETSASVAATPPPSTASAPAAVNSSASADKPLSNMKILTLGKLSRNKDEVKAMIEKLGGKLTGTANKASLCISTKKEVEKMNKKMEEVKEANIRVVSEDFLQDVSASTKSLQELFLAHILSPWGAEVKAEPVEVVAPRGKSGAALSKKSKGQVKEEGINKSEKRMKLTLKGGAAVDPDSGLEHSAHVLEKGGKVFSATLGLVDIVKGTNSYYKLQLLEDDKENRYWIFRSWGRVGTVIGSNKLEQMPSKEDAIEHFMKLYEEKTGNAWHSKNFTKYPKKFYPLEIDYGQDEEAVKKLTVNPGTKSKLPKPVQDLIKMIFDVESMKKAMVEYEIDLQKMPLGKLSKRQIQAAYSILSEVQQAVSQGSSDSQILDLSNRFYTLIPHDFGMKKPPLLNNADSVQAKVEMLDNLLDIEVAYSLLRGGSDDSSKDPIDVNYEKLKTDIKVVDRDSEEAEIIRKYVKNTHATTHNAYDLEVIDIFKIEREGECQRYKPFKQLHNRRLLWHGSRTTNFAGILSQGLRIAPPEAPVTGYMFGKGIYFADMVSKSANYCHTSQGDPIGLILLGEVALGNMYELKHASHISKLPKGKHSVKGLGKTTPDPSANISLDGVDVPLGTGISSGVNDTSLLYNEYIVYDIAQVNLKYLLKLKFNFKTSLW

[4] = Comet tail intensity assay of DNA damage and repair after H2O2; assay type: cell-based, mouse; settings: 10 µM, 200 µM H2O2, repair over 30 min
[5] = system: rat primary cortical neurons; assay: Cytotoxicity in primary cortical neurons, LDH release at 24 h; assay type: cell-based; settings: n = 6/group
[6] = system: primary cortical neurons; assay: Oxygen-glucose deprivation; assay type: cell-based, rat; settings: concentrations >100 nM
[7] = system: primary cortical neurons; assay: Mitochondrial and cytosolic NAD+ 24 h after OGD; assay type: cell-based, rat; settings: 10 nM, n = 6/group

## C[C@@]1(c2nc3c(C(N)=O)cccc3[nH]2)CCCN1 [veliparib, 2-[(S)-2-methylpyrrolidin-2-yl]-1H-benzimidazole-4-carboxamide]
[1]
  Tumoricidal concentration: > 100 µM
[2]
  Inhibition of glutamate-induced ferroptosis: inhibit glutamate-induced ferroptosis
[3]
  PARP1 inhibition, veliparib versus XJB-veliparib: similar
[4]
  Effect on DNA repair after H2O2: impeded DNA repair
[5]
  Concentration at which neurotoxicity (defined as >10% cell death) was seen: 1000 nM
[6]
  Protection against OGD at higher concentrations: no additional protection
[7]
  Mitochondrial NAD+ stores after OGD: preserved
